Measurements reported in patent US20060252800A1, “Anti-leishmania agent” (priority 2003, published 2006).

Legend:
[1] = system: Leishmania (L. major); test: Leishmania protozoa proliferation inhibition assay; format: cell-based; details: for OD level (number of viable Leishmania protozoa): 48 hours at 27° C., absorbance 450 nm minus 630 nm; for IC50: calculated from the graphs of FIGS. 1 to 4 (concentration vs number of viable leishmania protozoa), read-out: Concentration inhibiting 50% leishmania proliferation
Description: After dissolving each of the obtained compounds in dimethylsulfoxide (hereinafter referred to as DMSO), the resultant was diluted by 9 steps in Medium 199 medium (Invitrogen) to the indicated concentration, filtrated with a membrane filter, and each of the filtration was made as a sample solution. […] By keeping the solution at 27° C., incubation was performed under 5% CO2, for 48 hours. Then, TetraColor ONE (tradename: Seikagaku Corporation) reagent was added thereto and further incubated for 6 hours. Then, the absorbance at a wavelength of 450 nm was measured for the 96-well microtiter plate with a microplate reader, the wave length of 630 nm was made as reference wave length, and in order to exclude background effect, the absorbance at 630 nm was excluded from the one at 450 nm, and the OD level was calculated as a level to indicate the number of viable Leishmania protozoa. The assay was performed by three wells at a time for each concentration of each sample, and the mean level was made as OD level. […] Amphotericin B was used as positive control. […] Inhibiting effect against […] protozoa for each sample was similar or more compared with that of Amtephotericin B.

[2] = Table 2, sample concentration 0.0001 mg/ml
[3] = Table 2, sample concentration 0.0007 mg/ml
[4] = Table 2, sample concentration 0.002 mg/ml
[5] = Table 2, sample concentration 0.008 mg/ml
[6] = Table 2, sample concentration 0.025 mg/ml
[7] = Table 2, sample concentration 0.084 mg/ml
[8] = Table 2, sample concentration 0.279 mg/ml
[9] = Table 2, sample concentration 0.93 mg/ml
[10] = Table 2, sample concentration 3.1 mg/ml
[11] = Table 2, sample concentration 2E−04 mg/ml
[12] = Table 1, sample concentration 0.001 mg/ml
[13] = Table 1, sample concentration 0.016384 mg/ml
[14] = Table 1, sample concentration 0.04096 mg/ml
[15] = Table 1, sample concentration 0.1024 mg/ml
[16] = Table 1, sample concentration 0.256 mg/ml
[17] = Table 1, sample concentration 0.64 mg/ml
[18] = Table 1, sample concentration 1.6 mg/ml
[19] = Table 1, sample concentration 4 mg/ml
[20] = Table 1, sample concentration 10 mg/ml
[21] = Table 1, sample concentration 25 mg/ml, mean of three wells

SMILES	OD level (number of viable Leishmania protozoa) [1, 2]	OD level (number of viable Leishmania protozoa) [1, 3]	OD level (number of viable Leishmania protozoa) [1, 4]	OD level (number of viable Leishmania protozoa) [1, 5]	OD level (number of viable Leishmania protozoa) [1, 6]	OD level (number of viable Leishmania protozoa) [1, 7]	OD level (number of viable Leishmania protozoa) [1, 8]	OD level (number of viable Leishmania protozoa) [1, 9]	OD level (number of viable Leishmania protozoa) [1, 10]	OD level (number of viable Leishmania protozoa) [1, 11]	IC50 [1] [nM]	melting point [°C]	OD level (number of viable Leishmania protozoa) [1, 12]	OD level (number of viable Leishmania protozoa) [1, 13]	OD level (number of viable Leishmania protozoa) [1, 14]	OD level (number of viable Leishmania protozoa) [1, 15]	OD level (number of viable Leishmania protozoa) [1, 16]	OD level (number of viable Leishmania protozoa) [1, 17]	OD level (number of viable Leishmania protozoa) [1, 18]	OD level (number of viable Leishmania protozoa) [1, 19]	also measured
CCCC[n+]1ccc(/C=c2\s/c(=C3/Sc4ccccc4N3C)c(=O)n2CC)cc1.[Br-] [I (b), 1-butyl-4-[3-ethyl-{5-(3-methyl-2(3H)-benzothiazolylidene)-4-oxo-2-thiazolidinylidene}methyl]pyridinium=bromide]	0.363	0.345	0.335	0.335	0.435	0.465	0.106	0.032	0.032	0.343	3700	299 to 300									
CCCC[n+]1ccccc1/C=c1\s/c(=C2/Sc3ccccc3N2C)c(=O)n1CC.[I-] [I (c), 1-butyl-2-[3-ethyl-{5-(3-methyl-2(3H)-benzothiazolylidene)-4-oxo-2-thiazolidinylidene}methyl]pyridinium=iodide]	0.365	0.360	0.394	0.407	0.317	0.117	0.042	0.029	0.031	0.350	1000	237 to 242									
CCn1c(=Cc2sc3ccccc3[n+]2C)sc(=C2Sc3ccc4ccccc4c3N2C)c1=O.Cc1ccc(S(=O)(=O)[O-])cc1 [IV (m), 2-[{5-(3-methyl-2(3H)-benzobenzo[e]thiazolilidene)-4-oxo-3-ethyl-2-thiazolidinylidene}methyl]-1-methylbenzothiazolium=p-toluenesulfonate]											2700										OD level (number of viable Leishmania protozoa) ([1]; Table 3, sample concentration 0.001 mg/ml): 0.340; OD level (number of viable Leishmania protozoa) ([1]; Table 3, sample concentration 0.002165 mg/ml): 0.344; OD level (number of viable Leishmania protozoa) ([1]; Table 3, sample concentration 0.0072171 mg/ml): 0.342; OD level (number of viable Leishmania protozoa) ([1]; Table 3, sample concentration 0.02406 mg/ml): 0.354; OD level (number of viable Leishmania protozoa) ([1]; Table 3, sample concentration 0.08019 mg/ml): 0.379; OD level (number of viable Leishmania protozoa) ([1]; Table 3, sample concentration 0.2673 mg/ml): 0.422; OD level (number of viable Leishmania protozoa) ([1]; Table 3, sample concentration 0.891 mg/ml): 0.385; OD level (number of viable Leishmania protozoa) ([1]; Table 3, sample concentration 2.97 mg/ml): 0.149; OD level (number of viable Leishmania protozoa) ([1]; Table 3, sample concentration 9.9 mg/ml): 0.033; OD level (number of viable Leishmania protozoa) ([1]; Table 3, sample concentration 33 mg/ml): 0.027
CN1/C(=C\c2cccc[n+]2C)Sc2ccccc21 [V (a), 2-[(3-methyl-2(3H)-benzothiazolylidene)methyl]-1-methylpyridinium=p-toluenesulfonate]											490		0.464	0.615	1.237	0.596	0.139	0.046	0.032	0.029	OD level (number of viable Leishmania protozoa) [1, 20]: 0.031; OD level (number of viable Leishmania protozoa) [1, 21]: 0.032
CCN1C(=O)CS/C1=C\c1sc2ccccc2[n+]1CC [V (b), 2-[(4-oxo-3-ethyl-2-thiazolidinylidene)methyl]-3-ethylbenzothiazolium=p-toluenesulfonate]											1200		0.441	0.458	0.520	0.533	0.363	0.145	0.047	0.040	OD level (number of viable Leishmania protozoa) [1, 20]: 0.042; OD level (number of viable Leishmania protozoa) [1, 21]: 0.056
